Laboratory results from PMC3462610 (Biochemical Journal, 2011).
Where no end group is shown, it is not given here.

What was measured:
activated His–JNK2–FLAG = activated His–JNK2–FLAG (Homo sapiens, UniProt P45984); experiment: biochemical
endogenous JNK2 = experiment: Co-immunoprecipitation of endogenous WDR62 with JNK2, HEK-293T; type: binding, human; conditions: anti-WDR62 3G8
Endogenous MKK7 = experiment: Co-immunoprecipitation of endogenous WDR62 with MKK7, HEK-293T; type: binding, human; conditions: anti-WDR62 3G8
JNK1 = experiment: Co-immunoprecipitation of endogenous WDR62 with JNK1, HEK-293T; type: binding, human; conditions: authors attribute it to lower JNK1 expression level
JNK3 = experiment: GST pull-down with WDR62 1018-C–GST constructs; type: binding, human; conditions: HEK-293T
EGFP–JNK1 = experiment: Immunofluorescence, recruitment of EGFP–JNK1 to cellular granules in HeLa cells; type: cell-based, human; conditions: 24 h after transfection, confocal microscopy
MKK7α and MKK7β = conditions: cited from earlier work

Chain of activated His–JNK2–FLAG (P45984 whole entry): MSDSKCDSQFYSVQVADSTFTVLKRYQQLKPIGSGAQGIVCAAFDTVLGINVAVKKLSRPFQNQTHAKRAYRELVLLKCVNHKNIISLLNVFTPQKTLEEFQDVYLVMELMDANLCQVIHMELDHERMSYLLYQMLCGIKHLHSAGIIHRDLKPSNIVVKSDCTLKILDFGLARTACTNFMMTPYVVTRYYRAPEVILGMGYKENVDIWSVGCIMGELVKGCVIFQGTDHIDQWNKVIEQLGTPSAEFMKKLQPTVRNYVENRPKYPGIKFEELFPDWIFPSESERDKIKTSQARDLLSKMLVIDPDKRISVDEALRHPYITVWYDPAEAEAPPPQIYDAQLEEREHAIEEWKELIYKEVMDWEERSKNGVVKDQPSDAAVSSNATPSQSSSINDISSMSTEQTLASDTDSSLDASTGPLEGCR

Question: For “GRKKRRQRRRPPNHEARANLRLTLSSACDGLL [WDR62 peptide]”, which IC50 (activated His–JNK2–FLAG) is on record?
Answer: 5 µM

Question: What does the source list for “WDR62: full-length WDR62 (endogenous, or Myc-tagged wild-type); JNK scaffold protein”?
Answer: co-precipitation of endogenous JNK2 (endogenous JNK2): presence of endogenous JNK2; co-precipitation of endogenous MKK7 (Endogenous MKK7): also detected; interaction with JNK1 (JNK1): lack of interaction; association with JNK3 (JNK3): strongest association with the neuronal-enriched JNK3 isoform; recruitment of EGFP–JNK1 to cellular granules (EGFP–JNK1): efficiently recruited to these granules

B1: JIP1 scaffold protein: JIP1 (JNK-interacting protein 1) scaffold protein (protein, UniProt Q9UQF2 1-711, looked up)
C-Jun-amino-terminal …: MAERESGGLGGGAASPPAASPFLGLHIASPPNFRLTHDISLEEFEDEDLSEITDECGISLQCKDTLSLRPPRAGLLSAGGGGAGSRLQAEMLQMDLIDATGDTPGAEDDEEDDDEERAARRPGAGPPKAESGQEPASRGQGQSQGQSQGPGSGDTYRPKRPTTLNLFPQVPRSQDTLNNNSLGKKHSWQDRVSRSSSPLKTGEQTPPHEHICLSDELPPQSGPAPTTDRGTSTDSPCRRSTATQMAPPGGPPAAPPGGRGHSHRDRIHYQADVRLEATEEIYLTPVQRPPDAAEPTSAFLPPTESRMSVSSDPDPAAYPSTAGRPHPSISEEEEGFDCLSSPERAEPPGGGWRGSLGEPPPPPRASLSSDTSALSYDSVKYTLVVDEHAQLELVSLRPCFGDYSDESDSATVYDNCASVSSPYESAIGEEYEEAPRPQPPACLSEDSTPDEPDVHFSKKFLNVFMSGRSRSSSAESFGLFSCIINGEEQEQTHRAIFRFVPRHEDELELEVDDPLLVELQAEDYWYEAYNMRTGARGVFPAYYAIEVTKEPEHMAALAKNSDWVDQFRVKFLGSVQVPYHKGNDVLCAAMQKIATTRRLTVHFNPPSSCVLEISVRGVKIGVKADDSQEAKGNKCSHFFQLKNISFCGYHPKNNKYFGFITKHPADHRFACHVFVSEDSTKALAESVGRAFQQFYKQFVEYTCPTEDIYLE
Question: For B1, which “interaction with MKK7α and MKK7β” value (MKK7α and MKK7β) is on record?
Answer: interacts with both MKK7α and MKK7β
